Test results: the NIST ThermoML archive (doi:10.1016/j.tca.2006.06.018)
Numbers after ± are expanded uncertainties.

Tests used:
[1] = DTA
[2] = Molar enthalpy of transition or fusion; conditions: DSC

Question: What does the source list for `CCCCCCCCCCOn1cc[n+](OCCCCCCCCCC)c1C.O=S(=O)([N-]S(=O)(=O)C(F)(F)F)C(F)(F)F`?
Answer: Triple point temperature ([1]; Crystal 1): 303.1 ± 2.1 K; Molar enthalpy of transition or fusion ([2]; Crystal 1): 19 ± 0.502 kcal/mol

Question: With `CC[N+](C)(C)CCO.F[B-](F)(F)F` as the compound, how does the Triple point temperature ([1]; Crystal 1) read?
Answer: 426.8 ± 2.1 K

Question: And the Triple point temperature ([1]; Crystal 2)?
Answer: 311.5 ± 0.5 K

Question: And the Triple point temperature ([1]; Crystal 3)?
Answer: 252.8 ± 0.5 K

Question: What about the Triple point temperature ([1]; Metastable crystal) of the same compound?
Answer: 146 ± 1 K

Question: And the “Molar enthalpy of transition or fusion” value ([2]; Crystal 1)?
Answer: 1.23 ± 0.0598 kcal/mol

Question: And the “Molar enthalpy of transition or fusion” value ([2]; Crystal 2)?
Answer: 0.28 ± 0.0382 kcal/mol

Question: What about the “Molar enthalpy of transition or fusion” value ([2]; Crystal 3) of the same compound?
Answer: 0.731 ± 0.0478 kcal/mol

Question: With `CCCCOCn1cc[n+](COCCCC)c1.F[B-](F)(F)F` [1,3-bis(butoxymethyl)-1H-imidazolium tetrafluoroborate] as the compound, how does the Triple point temperature ([1]; Crystal 1) read?
Answer: 281.4 ± 2.1 K

Question: What about the Triple point temperature ([1]; Crystal 2) of the same compound?
Answer: 267.4 ± 0.5 K

Question: What about the “Molar enthalpy of transition or fusion” value ([2]; Crystal 1) of the same compound?
Answer: 2.04 ± 0.0789 kcal/mol

Question: What about the “Molar enthalpy of transition or fusion” value ([2]; Crystal 2) of the same compound?
Answer: 2.6 ± 0.0908 kcal/mol

Question: Which results are given for `CCCC[N+](C)(C)CCO.[Br-]` [N-(2-hydroxyethyl)-N,N-dimethylbutanaminium bromide]?
Answer: Triple point temperature ([1]; Crystal 1): 359.3 ± 2.1 K; Triple point temperature ([1]; Metastable crystal): 187.3 ± 0.5 K; Molar enthalpy of transition or fusion ([2]; Crystal 1): 3.16 ± 0.105 kcal/mol

Question: With `CC[N+](C)(C)CCO.N#C[N-]C#N` [N-ethyl-2-hydroxyethyl-N,N-dimethylammonium dicyanamide] as the compound, how does the Triple point temperature ([1]; Crystal 1) read?
Answer: 282.7 ± 2.1 K

Question: And the Triple point temperature ([1]; Metastable crystal)?
Answer: 168.4 ± 0.5 K

Question: And the “Molar enthalpy of transition or fusion” value ([2]; Crystal 1)?
Answer: 2.06 ± 0.0789 kcal/mol

Question: For `CCCCCCCCOCn1cc[n+](COCCCCCCCC)c1.O=S(=O)([N-]S(=O)(=O)C(F)(F)F)C(F)(F)F`, which Triple point temperature ([1]; Crystal 1) is on record?
Answer: 287.7 ± 2.1 K

Question: What about the “Molar enthalpy of transition or fusion” value ([2]; Crystal 1) of the same compound?
Answer: 8.17 ± 0.229 kcal/mol

Question: What does the source list for `CC[N+](C)(C)CCO.F[P-](F)(F)(F)(F)F`?
Answer: Triple point temperature ([1]; Crystal 1): 272 ± 2.1 K; Molar enthalpy of transition or fusion ([2]; Crystal 1): 2.53 ± 0.0908 kcal/mol
